In ChEMBL document CHEMBL1153593, “Recent developments in the design and synthesis of hybrid molecules based on aminoquinoline ring and their antiplasmodial evaluation” (Eur J Med Chem, 2009):
Converted amounts (≈) assume the structure as drawn.

Key:
Plasmodium berghei [1] = experiment: Gametocytocidal activity as infected mosquitoes against Plasmodium berghei at 10 uM/kg; assay type: functional
Plasmodium berghei [2] = experiment: Gametocytocidal activity as oocysts per mosquito against Plasmodium berghei; assay type: functional
[3] = Stability assessed as hydrolysis to metabolite in presence of 80% human plasma; assay type: ADME, cell-free
Plasmodium falciparum [4] = experiment: Antimalarial activity against chloroquine-resistant Plasmodium falciparum W2; assay type: functional, organism-based
Plasmodium falciparum [5] = experiment: Antimalarial activity against chloroquine-resistant Plasmodium falciparum K1; assay type: functional, organism-based
Plasmodium falciparum [6] = experiment: microbe, parasite or virus in culture; conditions: D10
Description: Antimalarial activity against chloroquine-sensitive Plasmodium falciparum D10

Plasmodium falciparum [7] = experiment: Antimalarial activity against Plasmodium falciparum NF54; conditions: NF-54
Plasmodium yoelii [8] = experiment: Antimalarial activity as reduced parasitaemia at day 4 against Plasmodium yoelii N67 infected Swiss mice (Mus musculus) compared to chloroquine; assay type: functional, N-67; design: concentration or dose not given beside the values
Plasmodium yoelii [9] = experiment: Antimalarial activity as mean survival time against Plasmodium yoelii N67 infected Swiss mice (Mus musculus); assay type: functional, N-67
Plasmodium falciparum [10] = experiment: Antimalarial activity against Plasmodium falciparum FcB1R; conditions: read-out: ED50 (the source's name)
Plasmepsin II = Plasmepsin II (Plasmodium falciparum, UniProt P46925); experiment: Inhibition of Plasmodium falciparum plasmepsin-2
[11] = Inhibition of Plasmodium falciparum falcipain-2

Sequence of Plasmepsin II (P46925 whole entry): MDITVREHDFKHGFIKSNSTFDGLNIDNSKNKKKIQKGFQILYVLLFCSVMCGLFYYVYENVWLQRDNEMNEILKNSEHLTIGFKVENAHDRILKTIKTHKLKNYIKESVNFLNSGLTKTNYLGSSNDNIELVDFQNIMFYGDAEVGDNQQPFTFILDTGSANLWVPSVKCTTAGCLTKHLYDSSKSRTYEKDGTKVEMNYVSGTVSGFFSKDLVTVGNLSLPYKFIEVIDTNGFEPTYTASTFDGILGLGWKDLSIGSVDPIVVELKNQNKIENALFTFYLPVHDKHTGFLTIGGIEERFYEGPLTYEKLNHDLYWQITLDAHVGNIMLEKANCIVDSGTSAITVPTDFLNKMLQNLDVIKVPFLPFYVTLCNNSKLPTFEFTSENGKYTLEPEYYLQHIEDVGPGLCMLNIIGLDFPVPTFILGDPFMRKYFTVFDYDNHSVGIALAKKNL

For COc1cc(NC(C)CCCN2C(=O)[C@@H](Cc3ccccc3)NC23CCCCCC3)c2ncccc2c1 (stereo partly specified), the Activity (Plasmodium berghei [1]) was 90%, the Activity (Plasmodium berghei [2]) was 78.9 and the Stability [3] was “Stable”.

O=C(CN(CCCNc1ccnc2cc(Cl)ccc12)C(=O)c1ccncc1)C1CCCCC1 gave an IC50 (Plasmodium falciparum [4]) of 1570 nM, an IC50 (Plasmodium falciparum [5]) of 73 nM and an IC50 (Plasmodium falciparum [6]) of 237 nM.

For O=C1CCSC(c2ccc(Cl)cc2)N1CCNc1ccnc2cc(Cl)ccc12 (stereo unspecified), the IC50 (Plasmodium falciparum [7]) was 13 nM, the MIC (Plasmodium falciparum [7]) was 0.26 µM (≈ 0.112 µg/mL) and the Activity (Plasmodium yoelii [8]) was 81%. For the same compound, the Survival (Plasmodium yoelii [9]) was 15.2 days.

With COc1cc(NC(C)CCCN2C(=O)[C@@H](C(C)C)NC23CCCCCC3)c2ncccc2c1 (stereo partly specified) the Activity (Plasmodium berghei [1]) was 65% and the Activity (Plasmodium berghei [2]) was 17.7.

For COc1cc(NC(C)CCCN2C(=O)CNC2(C)C)c2ncccc2c1 (stereo unspecified), the Activity (Plasmodium berghei [1]) was 21% and the Activity (Plasmodium berghei [2]) was 6.1.

Work on O=C(CN(CCCNc1ccnc2cc(Cl)ccc12)C(=O)c1ccc(O)cc1O)C1CCCCC1 yielded an IC50 (Plasmodium falciparum [4]) of 5940 nM, an IC50 (Plasmodium falciparum [5]) of 3830 nM and an IC50 (Plasmodium falciparum [6]) of 1670 nM.

Compound O=C(CN1CCCCC1)Nc1cc(COC(=O)CCCCC2=CC(=O)c3cccc(O)c3C2=O)cc(Nc2ccnc3ccc(Cl)cc23)c1 has an EC50 (Plasmodium falciparum [10]) of 23 nM.

CCCCNC(=O)C[C@H](O)[C@H](CC(C)C)NC(=O)[C@@H](NC(=O)Cc1ccc2cc(CC(=O)N[C@H](C(=O)N[C@H](CCCCN)C(=O)NCCCC(C)Nc3cc(OC)cc4cccnc34)C(C)C)ccc2c1)[C@H](C)CC (stereo partly specified) showed an IC50 (Plasmepsin II) of 1510 nM, an IC50 (Plasmodium falciparum [4]) of 4700 nM and an IC50 (Plasmodium falciparum [6]) of 6200 nM.

Compound O=C(CN1CCCCC1)Nc1cc(COC(=O)CCCCCC2=CC(=O)c3cccc(O)c3C2=O)cc(Nc2ccnc3ccc(Cl)cc23)c1 has an EC50 (Plasmodium falciparum [10]) of 23 nM.

Work on NC(=S)N/N=C1/C(=O)N(CCNc2ccnc3cc(Cl)ccc23)c2ccccc21 yielded an IC50 (Plasmodium falciparum [4]) of 240 nM, an IC50 (Plasmodium falciparum [5]) of 710 nM and an IC50 (Plasmodium falciparum [6]) of 320 nM. It also gave an IC50 [11] of 14600 nM.

With COc1cc(NC(C)CCCN2C(=O)[C@@H](CC(C)C)NC2(C)C)c2ncccc2c1 (stereo partly specified) the Activity (Plasmodium berghei [1]) was 30%, the Activity (Plasmodium berghei [2]) was 13.7 and the Stability [3] was “Stable”.

In the case of CC(C)(C)C(=O)CN(CCCNc1ccnc2cc(Cl)ccc12)C(=O)c1ccncc1, the IC50 (Plasmodium falciparum [4]) is reported as 3810 nM, the IC50 (Plasmodium falciparum [5]) is reported as 18200 nM and the IC50 (Plasmodium falciparum [6]) is reported as > 20000 nM.

Compound O=C(NCCNc1ccnc2cc(Cl)ccc12)N/N=C/c1ccc(O)c(CN2CCCC2)c1O has an IC50 [11] of 720 nM.

Compound CCCCNC(=O)C[C@H](O)[C@H](CC(C)C)NC(=O)[C@@H](NC(=O)Cc1ccc2cc(C(=O)OCCCC(=O)N[C@H](C(=O)N[C@H](CCCCN)C(=O)NCCCC(C)Nc3cc(OC)cc4cccnc34)C(C)C)ccc2c1)[C@H](C)CC (stereo partly specified) has an IC50 (Plasmepsin II) of 9600 nM, an IC50 (Plasmodium falciparum [4]) of 1000 nM and an IC50 (Plasmodium falciparum [6]) of 3300 nM.

O=C(CN(CCCNc1ccnc2cc(Cl)ccc12)C(=O)c1cnccn1)C1CCCCC1 gave an IC50 (Plasmodium falciparum [4]) of 877 nM, an IC50 (Plasmodium falciparum [5]) of 521 nM and an IC50 (Plasmodium falciparum [6]) of 242 nM.

Compound O=C1c2ccccc2SC(c2ccc(Cl)cc2)N1CCCNc1ccnc2cc(Cl)ccc12 (stereo unspecified) has an IC50 (Plasmodium falciparum [7]) of 138 nM, an MIC (Plasmodium falciparum [7]) of 0.27 µM (≈ 0.134 µg/mL) and an Activity (Plasmodium yoelii [8]) of 40.08%. It also gave a Survival (Plasmodium yoelii [9]) of 10.6 days.

In the case of CC(C)(C)C(=O)CN(CCNc1ccnc2cc(Cl)ccc12)C(=O)c1ccncc1, the IC50 (Plasmodium falciparum [4]) is reported as 991 nM, the IC50 (Plasmodium falciparum [5]) is reported as 1100 nM and the IC50 (Plasmodium falciparum [6]) is reported as 1060 nM.

Work on CC(C)(C)C(=O)CN(CCNc1ccnc2cc(Cl)ccc12)C(=O)c1cnccn1 yielded an IC50 (Plasmodium falciparum [4]) of 1190 nM, an IC50 (Plasmodium falciparum [5]) of 1130 nM and an IC50 (Plasmodium falciparum [6]) of 712 nM.

CC1(C(=O)NC2CCCCC2)CCCC(=O)N1CCCCCCNc1ccnc2cc(Cl)ccc12 (stereo unspecified) gave an IC50 (Plasmodium falciparum [4]) of 96 nM and an IC50 [11] of 17600 nM.

Compound COc1cc(NC(C)CCCN2C(=O)[C@@H](Cc3ccccc3)NC23CCCC3)c2ncccc2c1 (stereo partly specified) has an Activity (Plasmodium berghei [1]) of 65% and an Activity (Plasmodium berghei [2]) of 51.6.

CCN(CC)Cc1c(O)ccc(/C=N/NC(=O)NCCNc2ccnc3cc(Cl)ccc23)c1O gave an IC50 [11] of 2600 nM.

In the case of CC(C)(C)NC(=O)C1(C)CCC(=O)N1CCCCCCNc1ccnc2cc(Cl)ccc12 (stereo unspecified), the IC50 (Plasmodium falciparum [4]) is reported as 180 nM.

For COc1cc(NC(C)CCCN2C(=O)CNC23CCCCC3)c2ncccc2c1 (stereo unspecified), the Activity (Plasmodium berghei [1]) was 25%, the Activity (Plasmodium berghei [2]) was 7.4 and the Stability [3] was “Stable”.

In the case of CN1CCN(Cc2c(O)ccc(/C=N/NC(=O)NCCNc3ccnc4cc(Cl)ccc34)c2O)CC1, the IC50 [11] is reported as > 20000 nM.

NC(=S)N/N=C/c1ccc(O)c(CN2CCN(c3ccnc4cc(Cl)ccc34)CC2)c1O gave an IC50 [11] of 2250 nM.

In the case of COc1cc(NC(C)CCCN2C(=O)[C@@H](C(C)C)NC23CCCCC3)c2ncccc2c1 (stereo partly specified), the Activity (Plasmodium berghei [1]) is reported as 85%, the Activity (Plasmodium berghei [2]) is reported as 61.1 and the Stability [3] is reported as “Stable”.

With CC(C)(C)C(=O)CN(CCNc1ccnc2cc(Cl)ccc12)C(=O)c1ccc(O)cc1O the IC50 (Plasmodium falciparum [4]) was 4140 nM, the IC50 (Plasmodium falciparum [5]) was 5790 nM and the IC50 (Plasmodium falciparum [6]) was 5660 nM.

With COc1cc(NC(C)CCCN2C(=O)[C@@H](Cc3ccccc3)NC2(C)C)c2ncccc2c1 (stereo partly specified) the Activity (Plasmodium berghei [1]) was 76%, the Activity (Plasmodium berghei [2]) was 61.2 and the Stability [3] was “Stable”.

With COc1cc(NC(C)CCCN2C(=O)[C@@H](Cc3ccccc3)NC23CCCCC3)c2ncccc2c1 (stereo partly specified) the Activity (Plasmodium berghei [1]) was 83%, the Activity (Plasmodium berghei [2]) was 71 and the Stability [3] was “Stable”.

For O=C(CN(CCNc1ccnc2cc(Cl)ccc12)C(=O)c1cnccn1)C1CCCCC1, the IC50 (Plasmodium falciparum [4]) was > 10000 nM, the IC50 (Plasmodium falciparum [5]) was 1350 nM and the IC50 (Plasmodium falciparum [6]) was 793 nM.

NC(=S)N/N=C1/C(=O)N(CCNc2ccnc3cc(Cl)ccc23)c2ccc(Cl)cc21 showed an IC50 (Plasmodium falciparum [5]) of 54 nM and an IC50 (Plasmodium falciparum [6]) of 95 nM.

With COc1cc(NC(C)CCCN2C(=O)[C@@H](C(C)C)NC2(C)C)c2ncccc2c1 (stereo partly specified) the Activity (Plasmodium berghei [1]) was 25%, the Activity (Plasmodium berghei [2]) was 5 and the Stability [3] was “Stable”.

Work on CC(C)(C)C(=O)CN(CCCNc1ccnc2cc(Cl)ccc12)C(=O)c1cnccn1 yielded an IC50 (Plasmodium falciparum [4]) of 1650 nM, an IC50 (Plasmodium falciparum [5]) of 2290 nM and an IC50 (Plasmodium falciparum [6]) of 1380 nM.

O=C(CN1CCCCC1)Nc1cc(COC(=O)CCCCC2=CC(=O)c3ccccc3C2=O)cc(Nc2ccnc3ccc(Cl)cc23)c1 showed an EC50 (Plasmodium falciparum [10]) of 23 nM.

Compound O=C1c2ccccc2SC(c2c(Cl)cccc2Cl)N1CCCNc1ccnc2cc(Cl)ccc12 (stereo unspecified) has an IC50 (Plasmodium falciparum [7]) of 14 nM, an MIC (Plasmodium falciparum [7]) of 0.28 µM (≈ 0.148 µg/mL) and an Activity (Plasmodium yoelii [8]) of 23.5%. For the same compound, the Survival (Plasmodium yoelii [9]) was 13.8 days.

Work on CCCCNC(=O)C[C@H](O)[C@H](CC(C)C)NC(=O)[C@@H](NC(=O)c1ccc(Oc2ccc(C(=O)N[C@H](C(=O)N[C@H](CCCCN)C(=O)NCCCC(C)Nc3cc(OC)cc4cccnc34)C(C)C)cc2)cc1)[C@H](C)CC (stereo partly specified) yielded an IC50 (Plasmepsin II) of 590 nM, an IC50 (Plasmodium falciparum [4]) of 700 nM and an IC50 (Plasmodium falciparum [6]) of 400 nM.

For NC(=O)N/N=C/c1ccc(O)c(CN2CCN(c3ccnc4cc(Cl)ccc34)CC2)c1O, the IC50 [11] was > 20000 nM.

O=C(CN(CCNc1ccnc2cc(Cl)ccc12)C(=O)c1ccncc1)C1CCCCC1 gave an IC50 (Plasmodium falciparum [4]) of 619 nM, an IC50 (Plasmodium falciparum [5]) of 531 nM and an IC50 (Plasmodium falciparum [6]) of 540 nM.

With O=C1CSC(c2c(Cl)cccc2Cl)N1CCNc1ccnc2cc(Cl)ccc12 (stereo unspecified) the IC50 (Plasmodium falciparum [7]) was 39 nM, the MIC (Plasmodium falciparum [7]) was 0.55 µM (≈ 0.249 µg/mL) and the Activity (Plasmodium yoelii [8]) was 76.08%. For the same compound, the Survival (Plasmodium yoelii [9]) was 14.6 days.

In the case of O=C(NCCNc1ccnc2cc(Cl)ccc12)N/N=C/c1ccc(O)c(CN2CCOCC2)c1O, the IC50 [11] is reported as > 20000 nM.

For COc1cc(NC(C)CCCN2C(=O)[C@@H](C)NC23CCCCC3)c2ncccc2c1 (stereo partly specified), the Activity (Plasmodium berghei [1]) was 20% and the Activity (Plasmodium berghei [2]) was 0.8.

With COc1cc(NC(C)CCCN2C(=O)[C@@H](C(C)C)NC23CCCC3)c2ncccc2c1 (stereo partly specified) the Activity (Plasmodium berghei [1]) was 35% and the Activity (Plasmodium berghei [2]) was 4.2.

Compound O=C(NCCNc1ccnc2cc(Cl)ccc12)N/N=C/c1ccc(O)c(CN2CCN(c3ccnc4cc(Cl)ccc34)CC2)c1O has an IC50 [11] of 3160 nM.

Work on Cc1ccc2c(c1)/C(=N\NC(N)=S)C(=O)N2CCNc1ccnc2cc(Cl)ccc12 yielded an IC50 (Plasmodium falciparum [4]) of 51 nM, an IC50 (Plasmodium falciparum [5]) of 100 nM and an IC50 (Plasmodium falciparum [6]) of 79 nM. For the same compound, the IC50 [11] was 11600 nM.

O=C(NCCNc1ccnc2cc(Cl)ccc12)N/N=C/c1ccc(O)c(CN2CCCCC2)c1O showed an IC50 [11] of 630 nM.

Compound O=C(CN1CCCCC1)Nc1cc(COC(=O)CCC2=CC(=O)c3ccccc3C2=O)cc(Nc2ccnc3ccc(Cl)cc23)c1 has an EC50 (Plasmodium falciparum [10]) of 23 nM.
